In one experiment the target is HPK1 (Homo sapiens (Human), UniProt Q92918). Nature of the experiment: HPK1 enzyme activity detection (1 mM ATP system), ADP-Glo with MBP substrate, Pharmacological Experiment 2. Format: biochemical. As to the method:
(§1) Pharmacological Experiment 2: […] The test compound was serially diluted using DMSO to 200 times the detection concentration. […] Centrifuge at 1000×g for 30 seconds and incubate at 25° C. for 15 minutes. • (5) Adding ATP and substrate: Add 2 μL of 2×ATP-MBP solution to the 384-well plate and centrifuge at 1000×g for 30 seconds. Seal the plate with a sealing film and incubate at 25° C. for 60 minutes. • (6) Add ADP-Glo reagent: Add 4 μL ADP-Glo reagent (Promega, V9103) to the 384-well plate, centrifuge at 1000×g for 30 seconds, and incubate at 25° C. for 60 minutes. • (7) Detection of luminescent signal; Add 8 μL of luminescent detection reagent (Promega, V9103) to a 384-well plate, centrifuge at 1000×g for 30 seconds, and incubate at 25° C. for 60 minutes. The chemiluminescent signal was read using a BMG instrument. • (8) Calculation of percentage inhibition rate: […] See Table 2 for the enzymatic IC 50 data of the example compounds on HPK1.
On the technique in general: In ADP-Glo the light output rises with the ADP produced.

The next experiment concerns the target GLK (Homo sapiens (Human), UniProt Q8IVH8). As to the kind of experiment: GLK kinase assay (1 mM ATP system), ADP-Glo. The class given is biochemical. As to the method: as §1, with “Solution” for “Pharmacological Experiment 2:”, “Add” for “Adding”, “signal:” for “signal;”, “microplate reader.” for “instrument.”, “GLK kinase IC50” for “enzymatic IC 50”

Several values for one entry are separate records, joined by “and”; a condition that tells them apart may be missing. Equal values may be shown once.

Chain of GLK (Q8IVH8 whole entry, species assumed): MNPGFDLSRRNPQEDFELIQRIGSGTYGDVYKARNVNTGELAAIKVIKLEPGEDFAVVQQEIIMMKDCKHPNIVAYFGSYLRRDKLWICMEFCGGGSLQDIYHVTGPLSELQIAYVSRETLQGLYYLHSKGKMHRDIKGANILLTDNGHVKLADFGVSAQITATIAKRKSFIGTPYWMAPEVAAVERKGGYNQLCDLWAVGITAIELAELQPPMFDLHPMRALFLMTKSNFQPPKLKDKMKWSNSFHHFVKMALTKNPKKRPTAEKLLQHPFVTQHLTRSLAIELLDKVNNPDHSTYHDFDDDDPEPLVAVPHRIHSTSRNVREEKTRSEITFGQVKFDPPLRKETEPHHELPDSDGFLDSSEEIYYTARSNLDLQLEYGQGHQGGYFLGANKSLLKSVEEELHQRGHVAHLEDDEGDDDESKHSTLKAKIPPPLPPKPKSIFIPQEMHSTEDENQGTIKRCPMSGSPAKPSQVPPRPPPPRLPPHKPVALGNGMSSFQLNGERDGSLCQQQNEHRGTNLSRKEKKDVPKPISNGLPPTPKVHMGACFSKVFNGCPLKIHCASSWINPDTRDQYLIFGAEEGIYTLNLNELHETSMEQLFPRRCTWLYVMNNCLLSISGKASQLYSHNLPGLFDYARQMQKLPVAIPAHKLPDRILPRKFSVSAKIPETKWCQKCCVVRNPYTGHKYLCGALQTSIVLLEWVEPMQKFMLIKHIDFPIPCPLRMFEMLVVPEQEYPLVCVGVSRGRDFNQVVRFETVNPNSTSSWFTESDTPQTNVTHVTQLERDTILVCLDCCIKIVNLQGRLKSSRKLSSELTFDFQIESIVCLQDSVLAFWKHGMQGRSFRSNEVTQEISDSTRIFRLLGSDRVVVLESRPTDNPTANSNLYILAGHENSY
Chain of HPK1 (Q92918 whole entry, species assumed): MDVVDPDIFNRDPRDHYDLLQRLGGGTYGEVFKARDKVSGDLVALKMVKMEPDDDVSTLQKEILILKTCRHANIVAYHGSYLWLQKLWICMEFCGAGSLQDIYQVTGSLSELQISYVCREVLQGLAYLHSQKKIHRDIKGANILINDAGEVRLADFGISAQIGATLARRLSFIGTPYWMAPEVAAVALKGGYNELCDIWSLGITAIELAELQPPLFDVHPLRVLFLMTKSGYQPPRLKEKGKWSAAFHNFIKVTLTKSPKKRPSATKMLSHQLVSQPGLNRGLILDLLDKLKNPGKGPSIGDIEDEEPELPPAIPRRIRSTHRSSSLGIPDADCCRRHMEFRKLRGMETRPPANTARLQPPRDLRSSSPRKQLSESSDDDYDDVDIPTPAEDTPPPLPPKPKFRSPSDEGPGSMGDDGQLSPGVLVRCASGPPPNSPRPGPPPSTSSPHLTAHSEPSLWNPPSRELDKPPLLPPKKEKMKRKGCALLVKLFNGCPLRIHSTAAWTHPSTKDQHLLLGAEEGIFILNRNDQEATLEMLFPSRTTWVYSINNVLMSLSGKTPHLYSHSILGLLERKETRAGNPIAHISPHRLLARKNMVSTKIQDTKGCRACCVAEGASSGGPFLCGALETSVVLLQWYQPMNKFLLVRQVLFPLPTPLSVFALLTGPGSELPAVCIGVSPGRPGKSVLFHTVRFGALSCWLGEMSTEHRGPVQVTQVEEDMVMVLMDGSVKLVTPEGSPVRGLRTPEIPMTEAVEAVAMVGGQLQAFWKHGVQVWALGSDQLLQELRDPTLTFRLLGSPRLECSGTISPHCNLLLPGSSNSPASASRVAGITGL

Consider `CN(C)C1CCC2(CCOCC2)c2ccc(Nc3ccc(-c4ccnc5c4ccn5C)c4c3C(=O)NC4)nc21` (stereo not shown) [Compound 34], for which the IC50 at HPK1 turned out to be 8.18 nM; against GLK, 779 nM.

With `CN(C)C1CC2(CCOCC2)c2ccc(Nc3ccc(-c4cnn5cc(F)ccc45)c4c3C(=O)NC4)nc21` (stereo not shown) [Compound 36], the half-maximal inhibitory concentration (IC50) on HPK1 came out at 2.73 nM; on GLK, 78 nM.

For the molecule `CN(C)C1CC2(CCOCC2)c2ccc(Nc3ccc(-c4cnn5ccccc45)c4c3C(=O)NC4)nc21` (stereo not shown) [Compound 37], the values for the IC50 on HPK1 and at GLK were 2.25 nM and 158 nM, respectively.

`CN(C)C1CC2(CCOCC2)c2ccc(Nc3ccc(-c4cnn5cccnc45)c4c3C(=O)NC4)nc21` (stereo not shown) [Compound 38]: the half-inhibitory concentration (IC50) against HPK1 amounted to 2.92 nM; against GLK, 232 nM.

In the case of `O=C1NCc2c(-c3cnc4cc(F)ccn34)ccc(Nc3ccc4c(n3)C(N3CCC3)CC43CCOCC3)c21` (stereo not shown) [Compound 39, 7-(7-(AZETIDIN-1-YL)-2′,3′,5′,6,6′,7-HEXAHYDROSPIRO[B]PYRIDINE-5,4′-PYRAN]-2-YL)AMINO)-4-(7-FLUOROIMIDAZO[1,2-A]PYRIDIN-3-YL)ISOINDOL-1-ONE], the 50% inhibitory concentration (IC50) was 3.7 nM and 2.78 nM on HPK1; 88.2 nM against GLK.

Turning to `CN(C)C1CC2(CCOCC2)c2ccc(Nc3ccc(-c4cnc5cc(CO)ccn45)c4c3C(=O)NC4)nc21` (stereo not shown) [Compound 41, 7-((7-(DIMETHYLAMINO)-2′,3′,5′,6,6′,7-HEXAHYDROSPIRO[B]PYRIDIN-5,4′-PYRAN]-2-YL)AMINO)-4-(7-(HYDROXYMETHYL)IMIDAZO[1,2-A]PYRIDIN-3-YL)ISOINDOL-1-ONE], the IC50 was determined as 3.76 nM on HPK1 and 70.7 nM against GLK.

For the molecule `CN(C)C1CC2(CCOCC2)c2ccc(Nc3ccc(-c4cnc5cc(Cl)ccn45)c4c3C(=O)NC4)nc21` (stereo not shown) [Compound 42], the IC50 on HPK1 was 4.62 nM; against GLK it was 119 nM.

In the case of `CN(C)C1CC2(CCOCC2)c2ccc(Nc3ccc(-c4cnc5c(F)c(F)ccn45)c4c3C(=O)NC4)nc21` (stereo not shown) [Compound 43, 4-(7,8-DIFLUOROIMIDAZO[1,2-A]PYRIDIN-3-YL)-7-((7-(DIMETHYLAMINO)-2′,3′,5′,6,6′,7-HEXAHYDROSPIRO [B]PYRIDIN-5,4′-PYRAN]-2-YL)AMINO)ISOINDOL-1-ONE], the IC50 at HPK1 worked out at 4.22 nM; at GLK it was 657 nM.

With `CN(C)C1CC2(CCOCC2)c2ccc(Nc3ccc(-c4cnc5ncccn45)c4c3C(=O)NC4)nc21` (stereo not shown) [Compound 44], the IC50 was found to be 3.05 nM against HPK1 and 378 nM on GLK.

As to `CN(C)C1CC2(CCOCC2)c2ccc(Nc3ccc(-c4cnc5cc(F)c(Cl)cn45)c4c3C(=O)NC4)nc21` (stereo not shown) [Compound 46, 4-(6-CHLORO-7-FLUOROIMIDAZO[1,2-A]PYRIDIN-3-YL)-7-((7-(DIMETHYLAMINO)-2′,3′,5′,6,6′,7-HEXAHYDRO SPIRO[B]PYRIDIN-5,4′-PYRAN]-2-YL)AMINO)ISOINDOLIN-1-ONE], the IC50 on HPK1 was 11.8 nM; at GLK it was 971 nM.

`Cc1cc(Nc2ccc(-c3cnc4ccccn34)c3c2C(=O)NC3)nc2c1C1(CCOCC1)C[C@H]2N(C)C` [Compound 47]: the values for the concentration for half-maximal inhibition (IC50) against HPK1 and on GLK were 1.51 nM and 30.3 nM, respectively.

As for `Cc1cc(Nc2ccc(-c3cnn4ccccc34)c3c2C(=O)NC3)nc2c1C1(CCOCC1)C[C@H]2N(C)C` [Compound 48], the half-maximal inhibitory concentration (IC50) against HPK1 is 2.06 nM; at GLK it was 8.81 nM.

Consider `CN(C)Cc1nc(Nc2ccc(-c3cnc4cc(F)ccn34)c3c2C(=O)NC3)cc2c1C1(CCOCC1)NC2` [Compound 55], for which the IC50 against HPK1 was 7.56 nM; against GLK, 2150 nM.

Consider `O=C1NCc2c(-c3cnc4cc(F)ccn34)ccc(Nc3ccc4c(n3)C(N3CCOCC3)CC43CCOCC3)c21` (stereo not shown) [Compound 59, 4-(7-FLUOROIMIDAZO[1,2-A]PYRIDIN-3-YL)-7-(7-MORPHOLIN-2′,3′,5′,6,6′,7-HEXAHYDROSPIRO[B]PYRIDIN-5,4′-PYRAN]-2-YL)AMINO)ISOINDOL-1-ONE], for which the concentration for half-maximal inhibition (IC50) was 6.09 nM against HPK1 and above 30000 nM against GLK.

In the case of `CNC1CC2(CCOCC2)c2ccc(Nc3ccc(-c4cnc5cc(F)ccn45)c4c3C(=O)NC4)nc21` (stereo not shown) [Compound 60, 4-(7-FLUOROIMIDAZO[1,2-A]PYRIDIN-3-YL)-7-((7-(METHYLAMINO)-2′,3′,5′,6,6′,7-HEXAHYDROSPIRO[B]PYRIDIN-5,4′-PYRAN]-2-YL)AMINO)ISOINDOL-1-ONE], the 50% inhibitory concentration (IC50) is 2.14 nM against HPK1 and 123 nM against GLK.

As to `CN(C1CC1)C1CC2(CCOCC2)c2ccc(Nc3ccc(-c4cnc5cc(F)ccn45)c4c3C(=O)NC4)nc21` (stereo not shown) [Compound 61, 7-((7-(CYCLOPROPYL(METHYL)AMINO)-2′,3′,5′,6,6′,7-HEXAHYDROSPIRO[CYCLOPENTYL[B]PYRIDINE-5,4′-PYRAN]-2-YL)AMINO)-4-(7-FLUOROIMIDAZOLE[1,2-A]PYRIDIN-3-YL)ISOINDOL-1-ONE], the IC50 on HPK1 was 7.7 nM; at GLK, above 30000 nM.

For `O=C1NCc2c(-c3cnc4cc(F)ccn34)ccc(Nc3ccc4c(n3)C(N3CC(F)C3)CC43CCOCC3)c21` (stereo not shown) [Compound 67, 7-(7-(3-FLUOROAZETIDINE-1-YL)-2′,3′,5′,6,6′,7-HEXAHYDROSPIRO[B]PYRIDINE-5,4′-PYRAN]-2-YL)AMINO)-4-(7-FLUOROIMIDAZO[1,2-A]PYRIDIN-3-YL)ISOINDOLIN-1-ONE], the IC50 at HPK1 was determined as 2.49 nM; on GLK, 136 nM.

For `COC1(C)CN(C2CC3(CCOCC3)c3ccc(Nc4ccc(-c5cnc6cc(F)ccn56)c5c4C(=O)NC5)nc32)C1` (stereo not shown) [Compound 70], the results for the IC50 against HPK1 and against GLK were 2.99 nM and 188 nM, respectively.

Take `CO[C@@H]1CCN(C2CC3(CCOCC3)c3ccc(Nc4ccc(-c5cnc6cc(F)ccn56)c5c4C(=O)NC5)nc32)C1` (stereo partly shown) [Compound 73]: the IC50 on HPK1 was 3.48 nM; against GLK, 206 nM.

In the case of `O=C1NCc2c(-c3cnc4cc(F)ccn34)ccc(Nc3ccc4c(n3)C(N3CC[C@H](F)C3)CC43CCOCC3)c21` (stereo partly shown) [Compound 74], the IC50 was 3.02 nM against HPK1 and 299 nM at GLK.

For `CO[C@H]1CCN(C2CC3(CCOCC3)c3ccc(Nc4ccc(-c5cnc6cc(F)ccn56)c5c4C(=O)NC5)nc32)C1` (stereo partly shown) [Compound 76], the values for the half-maximal inhibitory concentration (IC50) on HPK1 and at GLK were 3.55 nM and 286 nM, respectively.

`CC(C)N(C)C1CC2(CCOCC2)c2ccc(Nc3ccc(-c4cnc5cc(F)ccn45)c4c3C(=O)NC4)nc21` (stereo not shown) [Compound 85, 4-(7-FLUOROIMIDAZO[1,2-A]PYRIDIN-3-YL)-7-((7-(ISOPROPYL(METHYL)AMINO)-2′,3′,5′,6,6′,7-HEXAHYDRO SPIRO[CYCLOPENTYL[B]PYRIDIN-5,4′-PYRAN]-2-YL)AMINO)ISOINDOL-1-ONE]: the results for the IC50 against HPK1 and against GLK were 5.19 nM and 831 nM, respectively.

`CN(C)C1COC2(CCOCC2)c2ccc(Nc3ccc(-c4cnc5cc(Cl)ccn45)c4c3C(=O)NC4)nc21` (stereo not shown) [Compound 86]: the half-inhibitory concentration (IC50) was 2.61 nM at HPK1 and 158 nM against GLK.

Regarding `O=C1NCc2c(-c3cnc4cc(F)ccn34)ccc(Nc3ccc4c(n3)C(N3CC5(COC5)C3)CC43CCOCC3)c21` (stereo not shown) [Compound 88], the 50% inhibitory concentration (IC50) was determined as 5.29 nM against HPK1 and 208 nM against GLK.

For `O=C1NCc2c(-c3cnc4cc(F)ccn34)ccc(Nc3ccc4c(n3)C(N3CCCCC3)CC43CCOCC3)c21` (stereo not shown) [Compound 90], the values for the IC50 against HPK1 and against GLK were 5.58 nM and 598 nM, respectively.

Consider `CN1CCN(C2CC3(CCOCC3)c3ccc(Nc4ccc(-c5cnc6cc(F)ccn56)c5c4C(=O)NC5)nc32)CC1` (stereo not shown) [Compound 91], for which the half-inhibitory concentration (IC50) on HPK1 is 86.2 nM; against GLK, above 30000 nM.

For orientation: IC50 means the concentration that inhibits the measured activity by half. Read a high IC50 as lower potency.

For the origin of these results see patent US20250361241A1, “HPK1 INHIBITOR AND MEDICAL USE THEREOF” (Betta Pharmaceuticals Co., Ltd., priority 2022, published 2025).
